Laboratory results: PMC9081605, “A High-Throughput Toxicity Screen of 42 Per- and Polyfluoroalkyl Substances (PFAS) and Functional Assessment of Migration and Gene Expression in Human Placental Trophoblast Cells” (Frontiers in Toxicology, 2022)
“Also recorded” adds a separate entry of the source.

Tests used:
Assay type in all cases: cell-based, human
[1] = test system: JEG-3 cells; experiment: Mitochondrial membrane potential, JC-10 assay (HTTS); conditions: for MMP ↓, lowest concentration at which the mean response value exceeded the mean control value ± 2*SD (rough binning): 24 h, decrease; for MMP relative to vehicle control (rough binning): after 24 h, in at least one concentration; for minimal effective concentration: read-out: MMP ↓, lowest concentration at which the mean response value exceeded the mean control value ± 2*SD (rough binning)
Excerpt: (§1) JEG-3 human choriocarcinoma trophoblastic cells (American Type Culture Collection, VA, United States) were maintained in sterile-filtered Minimum Essential Media (MEM) supplemented with L-glutamine and phenol red (Thermo Fisher Scientific, MA, United States), 10% (v/v) heat-inactivated BenchMark Fetal Bovine Serum (Gemini Bio, CA, United States), 1% (v/v) sodium pyruvate (Thermo Fisher Scientific, MA, United States), and 1% (v/v) penicillin streptomycin (Sigma Aldrich, MO, United States). Cells were maintained in an incubator at 37°C with 5% CO2. JEG-3 cells were cultured in 10 cm tissue culture plates and cell passage numbers were recorded.
(§2) A total of 42 perfluoroalkyl substances (PFAS) were evaluated (Supplementary Table S1 contains source and purity). PFAS stock solutions were maintained in 100% methanol as previous work has shown certain PFAS degrade when stored in dimethyl sulfoxide (DMSO; [Gaballah et al., 2020]). […] The vehicle control group consisted of 97.5% media + 2.5% methanol to match the concentration of methanol in the media at the highest PFAS concentration tested (500 µM). Menadione (50–500 µM) was used as a positive control for cytotoxicity assessment. PFAS were de-identified and assigned random numbers to eliminate bias. Chemical exposure plate maps were designed so that all experimental conditions were tested in at least technical duplicates per plate. The outer edges of each plate received media alone and were excluded from all analyses to avoid edge effects. Each plate map included 14 technical replicates of the vehicle control group and 14 technical replicates of media only. Biological replicates were defined as separate 384 well plates tested on separate days using different cell passages. The experimental workflow is depicted in Supplementary Figure S1.
(§3) JEG-3 cells were counted using a Z2 Coulter Particle Counter (Beckman Coulter, CA, United States) and seeded at a density of 2,500 cells per well in black-walled, clear bottom 384 well plates (Corning, #3764) and allowed to adhere overnight. Approximately 24 h later, 384 well plates were imaged using an IncuCyte Zoom live cell imager (Essen BioScience Inc., MI, United States) to obtain baseline cellular confluence measurements prior to chemical dosing (0 h). Media was removed from wells and replaced with fresh media containing chemical treatments (exposure media) using a Viaflo liquid handling device (Integra Biosciences, NH, United States). Within 30 min of exposure media application, plates were again imaged for cellular confluence using the IncuCyte Zoom. Plates were incubated with exposure media for 24 h and then imaged again using the IncuCyte Zoom (24 h).
The JC-10 assay (Enzo Life Sciences, NY, United States) was used to evaluate mitochondrial membrane potential, the main bioenergetic parameter that regulates respiratory rate, ATP synthesis and reactive oxygen species generation. In cells with polarized mitochondrial membranes, the JC-10 dye localizes to the mitochondrial matrix and forms red fluorescent aggregates (540/590 nm). In cells with depolarized mitochondrial membranes, the JC-10 dye localizes in the cytoplasm and converts to a green fluorescent monomer (490/525 nm). Mitochondrial membrane potential was calculated as the ratio of the green and red fluorescence intensities within a well.
At the end of the 24 h exposure period, exposure media was removed from the plate. The plate wells were then washed with 1x phosphate buffered saline (1x PBS). After washing, the JC-10 reagent was suspended in fresh 1x PBS and 20 µl was added to each well at a final concentration of 20 μM (Enzo Life Sciences, NY, United States). The plate was incubated for 1 h at 37°C, and the fluorescence intensities at excitation/emission wavelengths of 490/525 nm and 540/590 nm were measured using a CLARIOstar (BMG Labtech, Offenburg, Germany) plate reader, respectively.
HTTS data were analyzed using a custom data analysis script in R v 1.2.5019 ([R Core Team, 2019]). […]

[2] = test system: JEG-3 cells; experiment: CellTiter-Glo luminescent cell viability assay (HTTS); conditions: for Viability ↑, lowest concentration at which the mean response value exceeded the mean control value ± 2*SD (rough binning) / Viability ↓, lowest concentration at which the mean response value exceeded the mean control value ± 2*SD (rough binning): 24 h; for Viability ↑, lowest concentration at which the mean response value exceeded the mean control value ± 2*SD (rough binning): increase; for cell viability relative to vehicle control (rough binning): after 24 h, in at least one concentration; for Viability ↓, lowest concentration at which the mean response value exceeded the mean control value ± 2*SD (rough binning): decrease
Excerpt: as §1, §2, §3
In the same plate evaluated for mitochondrial membrane potential, cell viability measures were duplexed using the CellTiter-Glo (CTG) Luminescent Cell Viability Assay (Promega, WI, United States). CTG reagent was added to each well at a volume of 20 µl. The plate was left at room temperature to incubate for 5 min and then 20 µl from each well was transferred to a low-volume, round-bottom, white 384 well plate (Corning, NY, United States). The CTG reagent lyses cellular and mitochondrial membranes and binds to adenosine triphosphate (ATP) released by cells, which produces a luminescence signal. The intensity of the luminescence was considered a proxy measure for the number of live cells in a well. The luminescence intensities were measured using the CLARIOstar plate reader.
HTTS data were analyzed using a custom data analysis script in R v 1.2.5019 ([R Core Team, 2019]). Briefly, raw data points corresponding to the confluence measurements at 0 and 24 h, the fluorescence intensities corresponding to MMP, and the relative luminescence units (RLU) corresponding to cell viability were imported directly from Microsoft Excel into the R programming environment, RStudio. Separate plates run on separate days using different JEG-3 passages were considered as biologic replicates. […]

[3] = test system: JEG-3 cells; experiment: Proliferation, change in confluence 0-24 h (IncuCyte Zoom, HTTS); conditions: for minimal effective concentration: read-out: Prolif ↓, lowest concentration at which the mean response value exceeded the mean control value ± 2*SD (rough binning); for cellular proliferation relative to vehicle control (rough binning): after 24 h, in at least one concentration; for Prolif ↓, lowest concentration at which the mean response value exceeded the mean control value ± 2*SD (rough binning): decrease
Excerpt: as §1, §2, §3
Plate well bottom images were evaluated using automated cell masking. The automated cell masking program was developed using IncuCyte Zoom base software. Cell masking parameters were defined using a training set of JEG-3 cell images obtained prior to conducting the experiments and following IncuCyte Zoom software recommendations. Briefly, the training images were obtained from cell culture plates with varying levels of JEG-3 cellular confluence (ranging from ∼15% confluent to ∼95% confluent). Parameters for the automated cell masking were first manually set by an experimenter for 3-6 images of low (∼15–30%), medium (∼30–70%), and high confluence (∼70% or greater). The training images were then evaluated by the automated masking program and manually checked to ensure the parameters were sufficiently strict to ignore background (e.g., blank space on the plate well bottom) but adequately sensitive to detect cell borders. The masking program was then implemented on the experimental plates to obtain a baseline cellular confluence measurement at 0 h and a second confluence measurement at 24 h. […]

[4] = Homo sapiens, JEG-3, 24 h, read-out: MMP EC50 ± SD, JEG-3 cells, 24 h exposure, four-parameter fit, estimates meeting inclusion criteria
[5] = Homo sapiens, JEG-3, 24 h, read-out: Viability EC50 ± SD, JEG-3 cells, 24 h exposure, four-parameter fit, estimates meeting inclusion criteria
[6] = Homo sapiens, JEG-3, 24 h, read-out: Proliferation EC50 ± SD, JEG-3 cells, 24 h exposure, four-parameter fit, estimates meeting inclusion criteria
[7] = JEG-3 cells, 24 h exposure, four-parameter fit, estimates meeting inclusion criteria, read-out: Viability EC50 ± SD
[8] = JEG-3 cells, 24 h exposure, four-parameter fit, estimates meeting inclusion criteria, read-out: Proliferation EC50 ± SD
[9] = JEG-3 cells, raw model output including fits that did not meet inclusion criteria, read-out: MMP EC50 ± SD (raw values)
[10] = Homo sapiens, JEG-3, 24 h, read-out: MMP EC50 ± SE, JEG-3 cells, 24 h

O=C(O)C(F)(F)C(F)(F)OC(F)(F)F [Perfluoro-3-methoxypropanoic acid]
EC50 [1, 4]: 93.1 ± 132 µM
EC50 [2, 5]: 304 ± 28.2 µM
EC50 [3, 6]: 204 ± 111 µM

O=S(=O)(O)C(F)(F)C(F)(F)C(F)(F)C(F)(F)F [Perfluorobutanesulfonic acid]
MMP ↓, lowest concentration at which the mean response value exceeded the mean control value ± 2*SD (rough binning) ([1]; JEG-3 cells): 50 µM
MMP relative to vehicle control (rough binning) [1]: reduced MMP
Viability ↑, lowest concentration at which the mean response value exceeded the mean control value ± 2*SD (rough binning) ([2]; JEG-3 cells): 50 µM
EC50 [2, 7]: 330 ± 35 µM
cell viability relative to vehicle control (rough binning) [2]: increased cell viability
EC50 [3, 8]: 223 ± 76.7 µM

O=C(O)C(F)(F)C(F)(F)C(F)(F)F [Perfluorobutanoic acid]
MMP ↓, lowest concentration at which the mean response value exceeded the mean control value ± 2*SD (rough binning) ([1]; JEG-3 cells): 50 µM
EC50 [1, 9]: 52 µM
MMP relative to vehicle control (rough binning) [1]: reduced MMP
Viability ↑, lowest concentration at which the mean response value exceeded the mean control value ± 2*SD (rough binning) ([2]; JEG-3 cells): 50 µM
EC50 [2, 7]: 226 ± 116 µM
cell viability relative to vehicle control (rough binning) [2]: increased cell viability
EC50 [3, 8]: 209 ± 360 µM

O=C(O)C(F)(F)C(F)(F)C(F)(F)C(F)(F)C(F)(F)C(F)(F)C(F)(F)C(F)(F)C(F)(F)F [Perfluorodecanoic acid]
EC50 [1, 4]: 236 ± 160 µM
minimal effective concentration ([1]; Homo sapiens, JEG-3, 24 h): 50 µM
MMP relative to vehicle control (rough binning) [1]: reduced MMP
EC50 [2, 5]: 181 ± 25.6 µM
EC50 ([2]; Homo sapiens, JEG-3, 24 h, read-out: viability EC50 ± SE, JEG-3 cells, 24 h): 181 ± 26 µM
Viability ↓, lowest concentration at which the mean response value exceeded the mean control value ± 2*SD (rough binning) ([2]; JEG-3 cells): 200 µM
Viability ↑, lowest concentration at which the mean response value exceeded the mean control value ± 2*SD (rough binning) ([2]; JEG-3 cells): 50 µM
cell viability relative to vehicle control (rough binning) [2]: reduced cell viability; also recorded: increased cell viability
minimal effective concentration ([3]; Homo sapiens, JEG-3, 24 h): 250 µM
EC50 [3, 6]: 234 ± 22.8 µM
cellular proliferation relative to vehicle control (rough binning) [3]: reduced cellular proliferation

O=S(=O)(O)C(F)(F)C(F)(F)C(F)(F)C(F)(F)C(F)(F)C(F)(F)C(F)(F)F [Perfluoroheptanesulfonic acid]
EC50 [1, 9]: 874 ± 1750 µM
EC50 ([2]; JEG-3 cells, raw model output including fits that did not meet inclusion criteria, read-out: Viability EC50 ± SD (raw values)): 1980 ± 2480 µM
Prolif ↓, lowest concentration at which the mean response value exceeded the mean control value ± 2*SD (rough binning) ([3]; JEG-3 cells, 24 h): 232.5 µM
Prolif ↑, lowest concentration at which the mean response value exceeded the mean control value ± 2*SD (rough binning) ([3]; JEG-3 cells, 24 h, increase): 23.25 µM
EC50 [3, 8]: 296 ± 201 µM

O=S(=O)(O)C(F)(F)C(F)(F)C(F)(F)C(F)(F)C(F)(F)C(F)(F)F [Perfluorohexanesulfonic acid]
EC50 [1, 4]: 86.2 µM
EC50 [1, 10]: 86.2 ± 72.3 µM
EC50 ([1]; read-out: MMP EC50 ± SD, JEG-3 cells, 24 h exposure, four-parameter fit, estimates meeting inclusion criteria): 86.6 ± 71.5 µM
EC50 [2, 5]: 289 ± 29.6 µM
Viability ↑, lowest concentration at which the mean response value exceeded the mean control value ± 2*SD (rough binning) ([2]; JEG-3 cells): 50 µM
cell viability relative to vehicle control (rough binning) [2]: increased cell viability
minimal effective concentration ([3]; Homo sapiens, JEG-3, 24 h): 350 µM
EC50 [3, 6]: 252 ± 21.7 µM
cellular proliferation relative to vehicle control (rough binning) [3]: reduced cellular proliferation

O=C(O)C(F)(F)C(F)(F)C(F)(F)C(F)(F)C(F)(F)F [Perfluorohexanoic acid]
EC50 [1, 4]: 142 ± 12.6 µM
EC50 [1, 10]: 141 ± 11.1 µM
minimal effective concentration ([1]; Homo sapiens, JEG-3, 24 h): 100 µM
MMP relative to vehicle control (rough binning) [1]: reduced MMP
Viability ↑, lowest concentration at which the mean response value exceeded the mean control value ± 2*SD (rough binning) ([2]; JEG-3 cells): 300 µM
cell viability relative to vehicle control (rough binning) [2]: increased cell viability
minimal effective concentration ([3]; Homo sapiens, JEG-3, 24 h): 100 µM
EC50 ([3]; Homo sapiens, JEG-3, read-out: Proliferation EC50 ± SD (raw values), JEG-3 cells, raw model output including fits that did not meet inclusion criteria): 10418 ± 10 µM
cellular proliferation relative to vehicle control (rough binning) [3]: reduced cellular proliferation

O=C(O)C(F)(F)C(F)(F)C(F)(F)C(F)(F)C(F)(F)C(F)(F)C(F)(F)C(F)(F)C(F)(F)C(F)(F)F [Perfluoroundecanoic acid]
MMP ↓, lowest concentration at which the mean response value exceeded the mean control value ± 2*SD (rough binning) ([1]; JEG-3 cells): 100 µM
EC50 ([1]; JEG-3 cells, 24 h exposure, four-parameter fit, estimates meeting inclusion criteria, read-out: MMP EC50 ± SD): 200 ± 4 µM
MMP relative to vehicle control (rough binning) [1]: reduced MMP
Viability ↓, lowest concentration at which the mean response value exceeded the mean control value ± 2*SD (rough binning) ([2]; JEG-3 cells): 300 µM
EC50 [2, 7]: 266 ± 12.4 µM
cell viability relative to vehicle control (rough binning) [2]: reduced cell viability
Prolif ↓, lowest concentration at which the mean response value exceeded the mean control value ± 2*SD (rough binning) ([3]; JEG-3 cells, 24 h): 100 µM
EC50 [3, 8]: 230 ± 13.3 µM
cellular proliferation relative to vehicle control (rough binning) [3]: reduced cellular proliferation
